Activity calls are given as the source filed them.
Experiments:
Cytochrome P450 1A2 = target: T1, Cytochrome P450 1A2 (Homo sapiens, UniProt P05177);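 also: PubChem cytochrome P450 panel assay, CYP1A2 panel member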
T1 sequence (P05177 whole entry): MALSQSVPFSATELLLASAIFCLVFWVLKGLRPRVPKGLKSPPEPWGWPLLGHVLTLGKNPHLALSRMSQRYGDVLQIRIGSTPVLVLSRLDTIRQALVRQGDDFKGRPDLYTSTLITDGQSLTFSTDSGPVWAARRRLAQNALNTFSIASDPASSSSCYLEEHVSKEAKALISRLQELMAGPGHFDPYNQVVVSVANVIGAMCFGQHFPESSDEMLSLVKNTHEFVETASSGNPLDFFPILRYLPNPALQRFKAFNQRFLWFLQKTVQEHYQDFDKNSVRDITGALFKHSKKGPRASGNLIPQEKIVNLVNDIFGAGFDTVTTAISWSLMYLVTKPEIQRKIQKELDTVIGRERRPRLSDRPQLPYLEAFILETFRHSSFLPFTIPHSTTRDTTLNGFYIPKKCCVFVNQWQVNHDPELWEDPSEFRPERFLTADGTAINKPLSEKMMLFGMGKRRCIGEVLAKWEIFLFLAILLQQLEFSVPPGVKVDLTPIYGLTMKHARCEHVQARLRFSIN

Cytochrome P450 2D6 = Cytochrome P450 2D6 (Homo sapiens, UniProt P10635);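 also: CYP2D6 member of a cytochrome P450 panel assay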
Cytochrome P450 2D6, sequence (P10635 whole entry): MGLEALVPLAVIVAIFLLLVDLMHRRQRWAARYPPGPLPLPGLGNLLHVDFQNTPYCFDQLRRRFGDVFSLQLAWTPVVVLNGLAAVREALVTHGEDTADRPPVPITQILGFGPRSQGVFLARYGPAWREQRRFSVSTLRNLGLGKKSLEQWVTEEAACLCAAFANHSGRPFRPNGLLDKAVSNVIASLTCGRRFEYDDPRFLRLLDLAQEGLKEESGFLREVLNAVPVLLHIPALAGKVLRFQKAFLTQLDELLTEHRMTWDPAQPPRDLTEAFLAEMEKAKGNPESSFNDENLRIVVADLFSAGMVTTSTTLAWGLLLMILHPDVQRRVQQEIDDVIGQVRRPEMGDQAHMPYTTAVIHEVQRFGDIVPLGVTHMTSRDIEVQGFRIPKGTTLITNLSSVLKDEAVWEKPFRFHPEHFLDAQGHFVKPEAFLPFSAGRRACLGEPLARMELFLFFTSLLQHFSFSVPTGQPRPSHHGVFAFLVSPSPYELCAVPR

[1] = NIH-3T3 fibroblast cytotoxicity, dose response, cytotoxicity control, cell-based, fluorescence, Alamar Blue, secondary assay (AID 2327); format: functional;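 also: NIH-3T3 mouse fibroblasts cultured with fluconazole at 8 µg/mL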
[2] = fluconazole-exposed Candida albicans growth modulators – fluorescence, retest, confirmation (AID 2467); format: functional, cell-based
[3] = reduction of Shn3 3'UTR-driven luciferase in osteoblasts – cell-based, Clone20 osteoblasts, firefly luciferase, cherry-picked, dose response (AID 624132); format: functional;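 also: firefly luciferase luminescence from reporter carrying the Shn3 3'UTR in osteoblasts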
[4] = loss of viability in HepG2 cells – cell-based, CellTiter-Glo, cherry-picked, cytotoxicity control for Shn3 inhibitor project, dose response (AID 624134); format: functional
[5] = non-specific 3'UTR reporter inhibition in Clone20-Shn3RL – cell-based, Renilla luciferase, cherry-picked, counter-screen for Shn3 inhibitor project, dose response (AID 624133); format: functional
HEK293 [6] = assay: cells; details: Homo sapiens
HEK293 [7] = assay: cells; details: Homo sapiens; remark: listed apart in the source
[8] = THP-1 cell cytotoxicity, dose response, cytotoxicity control for non-replicating M. tuberculosis project (AID 489025); format: functional
[9] = target: Dual specificity tyrosine-phosphorylation-regulated kinase 1A (Rattus norvegicus, UniProt Q63470); format: biochemical, Homo sapiens
[10] = target: G-protein coupled receptor 55 (Homo sapiens, UniProt Q9Y2T6); assay: inhibition of LPI-stimulated GPR55 beta-arrestin translocation – imaging, U2OS, beta-arrestin-GFP, LPI agonist, primary screen (AID 2013); format: functional;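 also: antagonist potency measured as reduced agonist-driven arrestin aggregation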
G-protein coupled receptor 55, sequence (Q9Y2T6 whole entry, the tested form may be a part): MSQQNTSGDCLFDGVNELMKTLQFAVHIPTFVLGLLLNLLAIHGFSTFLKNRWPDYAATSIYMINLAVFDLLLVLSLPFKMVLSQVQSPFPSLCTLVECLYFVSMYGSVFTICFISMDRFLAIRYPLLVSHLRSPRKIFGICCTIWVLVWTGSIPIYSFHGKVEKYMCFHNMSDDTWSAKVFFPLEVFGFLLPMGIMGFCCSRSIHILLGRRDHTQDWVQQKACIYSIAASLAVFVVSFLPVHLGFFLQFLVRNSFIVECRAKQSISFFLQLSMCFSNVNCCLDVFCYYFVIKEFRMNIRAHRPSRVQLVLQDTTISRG

[11] = blockers of HIV-1 envelope-mediated cell-cell fusion – cherry-pick, dose response (AID 652057); format: functional, cell-based
[12] = viability loss in CEM21 cells – cell-based, CellTiter-Glo luminescence, cherry-picked, cytotoxicity control for viral fusion inhibitor project, dose response (AID 652042); format: functional;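 also: potency for signal decrease meaning cytotoxicity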
[13] = off-target signal loss in HeLa-CEM21 co-culture – HeLa F-luc CTL cells, cherry-picked, counter-screen for HIV-1 Env fusion inhibitor project, dose response (AID 652040); format: functional, cell-based;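 also: potency for signal decrease marking cytotoxic or nonspecific inhibition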
[14] = HIV-1 AD8 envelope cell-cell fusion blockers – cherry-pick, dose response (AID 652062); format: functional, cell-based;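 also: luciferase signal from cell-cell fusion driven by HIV-1 clade B AD8 Env; potency is for inhibitors of fusion seen as a drop in luminescence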
Cytochrome P450 2C19 = Cytochrome P450 2C19 (Homo sapiens, UniProt P33261); assay: Cytochrome panel assay with activity outcomes. Panel member name: p450-cyp2c19 Compounds with AC50 equal or less than 10 uM are considered active; format: functional
Cytochrome P450 2C19, sequence (P33261 whole entry): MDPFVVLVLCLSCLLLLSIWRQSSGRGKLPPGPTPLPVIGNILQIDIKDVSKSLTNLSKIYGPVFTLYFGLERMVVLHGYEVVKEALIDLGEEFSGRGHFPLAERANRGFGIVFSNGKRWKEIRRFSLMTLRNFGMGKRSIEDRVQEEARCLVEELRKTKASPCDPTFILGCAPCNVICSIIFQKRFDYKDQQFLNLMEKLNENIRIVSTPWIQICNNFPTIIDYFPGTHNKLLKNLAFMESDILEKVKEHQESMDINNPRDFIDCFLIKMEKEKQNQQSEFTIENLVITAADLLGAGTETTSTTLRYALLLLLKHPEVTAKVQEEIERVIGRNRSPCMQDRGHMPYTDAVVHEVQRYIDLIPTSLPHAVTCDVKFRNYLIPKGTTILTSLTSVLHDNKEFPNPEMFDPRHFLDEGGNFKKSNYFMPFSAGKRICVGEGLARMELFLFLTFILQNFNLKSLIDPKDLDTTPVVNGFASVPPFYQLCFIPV

Bcl-2-related protein A1 = target: T2, Bcl-2-related protein A1 (Mus musculus, UniProt Q07440); format: functional;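 also: confirmatory dose–response counterscreen on Bfl-1, used to check hits from a UBC13 polyubiquitin inhibitor campaign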
T2 sequence (Q07440 whole entry): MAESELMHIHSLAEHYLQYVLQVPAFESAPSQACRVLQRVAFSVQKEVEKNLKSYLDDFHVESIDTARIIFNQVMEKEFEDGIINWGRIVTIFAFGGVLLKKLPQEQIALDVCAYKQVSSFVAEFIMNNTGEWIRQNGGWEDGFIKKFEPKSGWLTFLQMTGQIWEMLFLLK

[15] = target: T3, Ubiquitin-conjugating enzyme E2 N (Homo sapiens, UniProt P61088); format: functional
T3 sequence (P61088 whole entry): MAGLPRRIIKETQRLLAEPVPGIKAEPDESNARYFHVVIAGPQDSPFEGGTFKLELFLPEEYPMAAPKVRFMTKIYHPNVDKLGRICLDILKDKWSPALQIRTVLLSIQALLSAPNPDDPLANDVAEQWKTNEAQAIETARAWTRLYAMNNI

[16] = target: T3, Ubiquitin-conjugating enzyme E2 N; format: functional; remark: listed apart in the source
[17] = target: T4, Histone-lysine N-methyltransferase NSD2 (Homo sapiens, UniProt O96028); format: biochemical
T4 sequence (O96028 whole entry): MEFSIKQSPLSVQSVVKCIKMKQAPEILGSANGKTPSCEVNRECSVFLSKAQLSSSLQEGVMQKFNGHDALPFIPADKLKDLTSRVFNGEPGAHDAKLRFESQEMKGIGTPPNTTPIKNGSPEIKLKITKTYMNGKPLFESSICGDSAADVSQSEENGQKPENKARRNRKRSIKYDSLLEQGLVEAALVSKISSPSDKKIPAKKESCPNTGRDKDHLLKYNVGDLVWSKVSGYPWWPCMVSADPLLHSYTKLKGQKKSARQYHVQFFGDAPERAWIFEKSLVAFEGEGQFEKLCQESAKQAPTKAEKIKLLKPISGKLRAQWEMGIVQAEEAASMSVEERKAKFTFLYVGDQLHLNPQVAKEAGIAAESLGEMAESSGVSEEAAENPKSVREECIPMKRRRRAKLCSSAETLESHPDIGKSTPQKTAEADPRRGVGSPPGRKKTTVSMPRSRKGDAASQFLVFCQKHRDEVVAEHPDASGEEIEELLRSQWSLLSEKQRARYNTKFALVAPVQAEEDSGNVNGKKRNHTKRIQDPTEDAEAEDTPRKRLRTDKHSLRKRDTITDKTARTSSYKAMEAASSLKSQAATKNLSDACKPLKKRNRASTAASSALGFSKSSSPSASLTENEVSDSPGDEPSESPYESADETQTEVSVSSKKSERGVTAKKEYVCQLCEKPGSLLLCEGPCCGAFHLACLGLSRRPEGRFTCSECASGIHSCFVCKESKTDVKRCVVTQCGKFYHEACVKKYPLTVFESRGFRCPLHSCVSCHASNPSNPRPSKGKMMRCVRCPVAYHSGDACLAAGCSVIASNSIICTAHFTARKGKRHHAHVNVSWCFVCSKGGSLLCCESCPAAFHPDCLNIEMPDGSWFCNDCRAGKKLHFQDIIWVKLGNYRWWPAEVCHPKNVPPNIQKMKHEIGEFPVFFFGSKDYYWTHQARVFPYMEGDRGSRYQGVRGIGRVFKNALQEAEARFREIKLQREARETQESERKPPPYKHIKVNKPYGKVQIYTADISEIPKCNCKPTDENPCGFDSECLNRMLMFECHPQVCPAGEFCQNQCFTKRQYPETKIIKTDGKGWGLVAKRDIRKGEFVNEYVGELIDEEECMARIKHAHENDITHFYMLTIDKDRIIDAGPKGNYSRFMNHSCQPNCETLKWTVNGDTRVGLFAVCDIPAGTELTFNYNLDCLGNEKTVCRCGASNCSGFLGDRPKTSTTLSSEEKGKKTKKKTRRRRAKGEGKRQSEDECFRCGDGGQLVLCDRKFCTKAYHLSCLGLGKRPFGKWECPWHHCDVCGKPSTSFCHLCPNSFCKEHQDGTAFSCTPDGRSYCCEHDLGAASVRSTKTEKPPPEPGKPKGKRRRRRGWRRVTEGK

Escherichia coli = assay: microbe, parasite or virus in culture
[18] = target: T5, High affinity choline transporter 1 (Homo sapiens, UniProt Q9GZV3); assay: human choline transporter blockers, potency – cell-based, 5-point CRC, membrane potential dye, dose response (AID 504840); format: functional
T5 sequence (Q9GZV3 whole entry): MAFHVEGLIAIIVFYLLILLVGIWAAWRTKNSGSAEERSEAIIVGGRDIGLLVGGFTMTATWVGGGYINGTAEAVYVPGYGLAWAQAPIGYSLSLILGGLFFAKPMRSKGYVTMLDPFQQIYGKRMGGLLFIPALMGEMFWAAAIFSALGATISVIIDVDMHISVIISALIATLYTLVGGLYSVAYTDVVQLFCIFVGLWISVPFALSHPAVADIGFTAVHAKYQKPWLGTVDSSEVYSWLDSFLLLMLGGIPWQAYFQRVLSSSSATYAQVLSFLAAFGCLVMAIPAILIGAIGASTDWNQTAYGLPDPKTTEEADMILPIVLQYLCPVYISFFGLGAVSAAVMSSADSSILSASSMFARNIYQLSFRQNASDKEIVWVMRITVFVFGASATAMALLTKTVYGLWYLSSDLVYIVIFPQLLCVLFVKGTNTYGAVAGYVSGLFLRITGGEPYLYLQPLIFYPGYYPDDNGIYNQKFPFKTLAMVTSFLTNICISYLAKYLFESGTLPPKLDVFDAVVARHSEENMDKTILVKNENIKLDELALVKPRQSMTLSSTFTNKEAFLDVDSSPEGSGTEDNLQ

H9c2 = assay: cells; format: functional, cell-based; details: Rattus norvegicus, H9c2, Myocardium;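 also: confirmatory concentration-response retest of ultra-high-throughput screening hits for modulation of myocardial damage; cell death induced by hydrogen peroxide oxidative stress; compound pretreatment for 60 min then peroxide exposure for 2 h; potency is for protecting the cells against peroxide damage rather than for killing them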
Hexokinase-1 = Hexokinase-1 (Homo sapiens, UniProt P19367); assay: hexokinase 1 activity inhibitors, potency – biochemical, set 2, resazurin fluorescence coupled readout, selectivity assay for HKDC1 inhibitor project, SAR follow-up (AID 588356); format: functional
Hexokinase-1, sequence (P19367 whole entry): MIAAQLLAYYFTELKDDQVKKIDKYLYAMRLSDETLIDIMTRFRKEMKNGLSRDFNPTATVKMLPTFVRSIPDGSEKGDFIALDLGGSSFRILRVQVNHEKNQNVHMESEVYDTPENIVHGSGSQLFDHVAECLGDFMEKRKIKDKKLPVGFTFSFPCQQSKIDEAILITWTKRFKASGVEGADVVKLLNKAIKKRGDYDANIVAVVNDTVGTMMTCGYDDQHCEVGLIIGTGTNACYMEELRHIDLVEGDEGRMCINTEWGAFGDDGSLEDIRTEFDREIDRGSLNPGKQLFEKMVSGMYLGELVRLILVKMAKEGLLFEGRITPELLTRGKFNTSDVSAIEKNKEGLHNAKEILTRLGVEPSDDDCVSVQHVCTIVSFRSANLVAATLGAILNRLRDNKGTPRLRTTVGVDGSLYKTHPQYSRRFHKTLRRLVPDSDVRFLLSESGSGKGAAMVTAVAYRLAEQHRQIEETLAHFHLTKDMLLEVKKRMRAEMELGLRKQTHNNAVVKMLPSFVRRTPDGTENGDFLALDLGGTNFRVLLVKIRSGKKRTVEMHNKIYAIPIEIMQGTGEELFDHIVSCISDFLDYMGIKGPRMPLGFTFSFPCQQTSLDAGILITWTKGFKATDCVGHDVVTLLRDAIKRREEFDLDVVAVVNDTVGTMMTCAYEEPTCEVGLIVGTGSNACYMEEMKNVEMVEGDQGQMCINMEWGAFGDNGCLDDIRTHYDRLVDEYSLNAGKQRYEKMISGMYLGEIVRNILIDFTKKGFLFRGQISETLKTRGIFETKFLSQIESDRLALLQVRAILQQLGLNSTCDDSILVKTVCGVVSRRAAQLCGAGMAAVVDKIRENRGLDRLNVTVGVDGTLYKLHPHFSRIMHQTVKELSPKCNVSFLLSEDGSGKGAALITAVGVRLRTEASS

Hexokinase HKDC1 = target: T6, Hexokinase HKDC1 (Homo sapiens, UniProt Q2TB90); assay: analog inhibition of human HKDC1 activity – biochemical, set 2, SAR follow-up (AID 588355); format: functional
T6 sequence (Q2TB90 whole entry): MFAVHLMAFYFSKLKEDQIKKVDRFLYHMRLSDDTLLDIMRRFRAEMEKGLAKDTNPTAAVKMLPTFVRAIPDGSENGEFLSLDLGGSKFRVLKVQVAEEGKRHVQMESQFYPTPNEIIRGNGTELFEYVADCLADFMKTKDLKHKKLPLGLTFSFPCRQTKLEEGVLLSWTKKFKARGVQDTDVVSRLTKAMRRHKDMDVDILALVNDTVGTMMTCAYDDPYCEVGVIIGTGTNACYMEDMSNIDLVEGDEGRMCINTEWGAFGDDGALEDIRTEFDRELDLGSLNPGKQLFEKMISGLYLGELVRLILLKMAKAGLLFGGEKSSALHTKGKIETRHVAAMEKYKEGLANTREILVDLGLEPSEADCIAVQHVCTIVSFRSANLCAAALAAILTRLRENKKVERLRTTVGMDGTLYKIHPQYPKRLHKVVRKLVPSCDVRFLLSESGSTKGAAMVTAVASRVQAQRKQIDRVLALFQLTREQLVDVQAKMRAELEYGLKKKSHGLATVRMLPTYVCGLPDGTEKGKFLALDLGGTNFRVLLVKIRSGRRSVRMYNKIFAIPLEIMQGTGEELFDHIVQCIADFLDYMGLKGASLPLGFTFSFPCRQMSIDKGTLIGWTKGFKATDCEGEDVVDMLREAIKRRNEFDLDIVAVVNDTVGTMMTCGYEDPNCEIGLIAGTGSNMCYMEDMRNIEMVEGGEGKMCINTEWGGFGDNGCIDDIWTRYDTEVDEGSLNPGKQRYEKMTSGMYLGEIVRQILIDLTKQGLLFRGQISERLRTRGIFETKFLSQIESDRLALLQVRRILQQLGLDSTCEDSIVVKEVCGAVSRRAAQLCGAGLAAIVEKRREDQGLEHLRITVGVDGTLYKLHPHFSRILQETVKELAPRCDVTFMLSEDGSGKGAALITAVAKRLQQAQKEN

CC1=NN(c2ccccc2)C(=O)[C@@H]1/N=N\c1ccc([As](=O)(O)O)c(O)c1
AC50 (Cytochrome P450 1A2): 5.01 µM (inconclusive) | AC50 (Cytochrome P450 2D6): inconclusive

O=C(Oc1c(CN2CCOCC2)cc(Cl)c2cccnc12)c1ccccc1Cl
EC50 [1]: > 160 µM (inactive) | EC50 [2]: 2.86 µM (active) | AC50 [3]: 4.59 µM (active) | AC50 [4]: 7.37 µM (active) | AC50 [5]: 9.15 µM (active) | EC50 (HEK293 [6]): > 59.6 µM (inactive) | EC50 (HEK293 [7]): > 59.6 µM (inactive)

O=c1cc(-c2ccccc2Cl)oc2c([N+](=O)[O-])c(O)cc(O)c12
CC50 [8]: > 40 µM (active) | AC50 [9]: 1.22 µM (active)

Cc1ccc(C(O)(c2ccccc2)c2ccccc2C(C)N(C)C)c(C)c1 (configuration not stated)
IC50 [10]: 0.799 µM (active) | AC50 [11]: 20.1 µM (active) | AC50 [12]: 19.6 µM (active) | AC50 [13]: 39 µM (active) | AC50 [14]: 30.5 µM (active)

NS(=O)(=O)c1cc(C(=O)O)c(Cl)c([N+](=O)[O-])c1Cl
AC50 (Cytochrome P450 2C19): inconclusive | AC50 (Cytochrome P450 1A2): 1.26 µM (inconclusive) | AC50 (Cytochrome P450 2D6): inconclusive

CNCc1cc(Br)c(OCC(=O)Nc2ccccc2OC)c(OC)c1
IC50 (Bcl-2-related protein A1): > 20 µM (inactive) | IC50 [15]: 8.66 µM (active) | IC50 [16]: 9.34 µM (active) | AC50 [17]: 14.7 µM (active)

Cc1ccc2oc3c(c(=O)c2c1)C(c1cccs1)N(CCCN(C)C)C3=O (configuration not stated)
AC50 (Escherichia coli): 27.1 µM (active)

O=C(NC1CCCCC1)C(c1ccc2ncccc2c1)N(Cc1ccccc1)C(=O)c1ccc2c(c1)OCCO2 (configuration not stated)
IC50 [18]: 10 µM (active) | IC50 (H9c2): > 79 µM (inactive)

COc1ccc(N(C(=O)c2snc(C(N)=O)c2N)C(C(=O)NC2CCCC2)c2ccco2)cc1 (configuration not stated)
IC50 (Bcl-2-related protein A1): > 20 µM (inactive) | IC50 [15]: 8.84 µM (active) | IC50 [16]: 8.44 µM (active)

O=C(c1ccco1)N1CCCC(c2nc(O)c3nnn(Cc4ccc(F)cc4)c3n2)C1 (configuration not stated)
AC50 (Escherichia coli): 42.9 µM (active)

CCCCN1C(=O)C(NC(C)=O)c2cc(C)ccc21 (configuration not stated)
IC50 (Hexokinase-1): > 80 µM (inactive) | IC50 (Hexokinase HKDC1): > 80 µM (inactive)

Source: ChEMBL document CHEMBL1201862, “PubChem BioAssay data set” (2004)
